Test results from patent publication US9012625B2, “Method for the synthesis of a trisaccharide” (Glycom A/S, priority 2009, dated 2015).

Assay: solubility in hot methanol
Format: physicochemical
Conditions: 3 volumes

solubility in hot methanol: excellent solubility
SMILES: CC1O[C@@H](OC2C(O)[C@@H](O)C(CO)O[C@H]2O[C@@H]2C(CO)OC(O)C(O)C2O)C(OCc2ccccc2)C(OCc2ccccc2)[C@@H]1OCc1ccccc1 (stereo partly drawn) [anhydrous derivative, O-(2,3,4-tri-O-benzyl-α-L-fucopyranosyl)-(1→2)-O-β-D-galactopyranosyl-(1→4)-D-glucose]
